From US20230183265A1, “Crystal Form of Macrocyclic Tyrosine Kinase Inhibitor and Preparation Method therefor” (SHANDONG XUANZHU PHARMA CO., LTD., priority 2020, published 2023) come the findings set out here.

In test [1] the test system is xenograft tumor of BaF3 LMNA-NTRK1-G595R stably transfected cell line. The experiment in a line: Efficacy study on BaF3 LMNA-NTRK1-G595R stable cell strain subcutaneous xenograft model. The format is in vivo, mouse (NOD-SCID). Conditions: bid, p.o., 7 days. The procedure: Test substance: the compound represented by Formula (I), prepared according to the method in Embodiment 1.
A BaF3LMNA-NTRK1-G595R stably transfected cell line resuspended in a RPM11640 serum-free medium was inoculated subcutaneously on a right scapula of a mouse (nonobese diabetic-severe combined immunodeficiency disease (NOD-SCID)) at 1×10^6 cells/mouse (0.1 ml/mouse).
3.2 Grouping Administration
While the average tumor volume was about 500 mm^3, it was randomly divided into a vehicle group, a compound represented by Formula (I) (10/5/3/1 mg/kg, bid) group and a LOXO-195 group (30/10/3 mg/kg, bid).
3.3 Experimental Evaluation Index
1) Tumor growth inhibition rate TGI (%) • TGI (%)=(1−T/C)×100%
2) Tumor volume ratio of Treatment group/Control group TIC (%) • TIC (%)=TRTV/CRTV×100% • RTV=Vt/V0, herein Vt is the tumor volume on the t-th day after grouping, and V0 is the tumor volume on the day of grouping; TRTV: the average relative tumor volume in the administration group; and CRTV: the average relative tumor volume in the vehicle control group.

Test [2] relates to Ba/F3 ETV6-NTRK3-G623R cell line. The experiment in a line: In vitro cytological inhibitory activity (CelltiterGlo assay). Conditions: Mus musculus, BaF3, 72 hours. It is filed as cell-based. The source says:
(§1) Test compound: the compound represented by Formula (I), prepared according to the method in Embodiment 1.
(§2) The meanings of cell lines used in the experiment are as follows: • Ba/F3 LMNA-NTRK1-G595R cell line: • A stably expressed cell line of Ba/F3 cells transfected with LMNA-NTRK1 G595R; and • Ba/F3 ETV6-NTRK3-G623R cell line: • A stably expressed cell line of Ba/F3 cells transfected with ETV6-NTRK3-G623R.
(§3) Experimental Method (CelltiterGlo Assay)
(§4) 1. Cell Culture and Inoculation
(§5) All cells were suspension cells, and all culture mediums were RPM1-1640+10% FBS. The cells were tested in a logarithmic growth phase.
(§6) The cells in the logarithmic growth phase were collected and counted by a […]. A trypan blue exclusion method was used to detect the cell activity, to ensure that the cell activity was above 90%. It was adjusted to the appropriate concentration, and 90 μL of cell suspension was respectively added to a 96-well plate.
(§7) 2. Preparation of Test Compound
(§8) “M” means “mol/L”, “mM” means “mmol/L”, and “μM” means “μmol/L”. […]
(§9) A CellTiter-Glo luminescent cell viability assay (CTG) reagent was molten and a cell plate was balanced to a room temperature for 30 minutes. […] The light signal value was read by a multifunctional microplate reader.
(§10) 1) Inhibition rate (%)=(DMSO solvent control well reading−test compound well reading)/(DMSO solvent control well reading−blank well reading)×[…]; and […]
Background: In ATP-based viability assays light output follows the ATP content of the culture.

The subject of test [3] is Ba/F3 LMNA-NTRK1-G595R cell line. The test is described as above. The format is cell-based. Conditions: Mus musculus, BaF3, 72 hours.
From the text: as §1, §2, §3, §4, §5, §6, §7, §8, §9, §10

Test [4] deals with Ba/F3 SLC34A2/ROS1-G2032R cell line. The experiment in a line: In vitro cytological inhibitory activity (Celltiter-Glo assay). The format is cell-based. The conditions noted are these: Mus musculus, BaF3, 72 hours. The procedure:
as §1
The meanings of cell lines used in the experiment are as follows: • Ba/F3 SLC34A2/ROS1-G2032R cell line: • A stably expressed cell line of Ba/F3 cells transfected with SLC34A2/ROS1-G2032R.
Experimental Method (Celltiter-Glo Assay)
as §4, §5
The cells in the logarithmic growth phase were collected and counted by a platelet counter. A trypan blue exclusion method was used to detect the cell activity, as to ensure that the cell activity was above 90%. It was adjusted to the appropriate concentration, and 90 μL of cell suspension was respectively added to a 96-well plate.
as §7
2.2 Preparation of Working Stock Solution of Test Compound […]
A CTG reagent was molten and a cell plate was balanced to a room temperature for 30 minutes. […] The light signal value was read by a multifunctional microplate reader.
1) Cell survival rate (%)=(test compound well reading−blank well reading)/(DMSO solvent control well reading−blank well reading)×100%; and […]

For `C[C@@H]1COc2ncc(F)cc2[C@H]2CCCN2c2ccc3ncn(c3n2)C(=O)N1` [Compound represented by Formula (I), (2^2R, 6R)-3^5-fluoro-6-methyl-1^3H-4-oxa-7-aza-1(5,3)-imidazo[4,5-b]pyridina-3(3,2)-pyridina-2(1,2)-pyrrolidina cyclooctaphan-8-one], the T/C worked out at 73.2% in test [1] (experiment 1, 3 mg/Kg); 53.7% in test [1] (experiment 2, 1 mg/Kg); 0% in test [1] (experiment 2, 5 mg/Kg); 0% in test [1] (experiment 2, 10 mg/Kg). For the same compound, the TGI in test [1] (experiment 1, 3 mg/Kg) is given as 26.8%; in test [1] (experiment 2, 1 mg/Kg), 46.3%; in test [1] (experiment 2, 5 mg/Kg), 100%; in test [1] (experiment 2, 10 mg/Kg), 100%. Besides, the IC50 in test [2] was 1 nM; in test [3], 0.6 nM; in test [4], 2.3 nM.

In general, T/C refers to the result in the treated group divided by that in the control group, in per cent. For orientation: TGI means the reduction of tumour growth relative to the control group. The IC50 is the point on the concentration scale where inhibition reaches its midpoint. A higher IC50 goes with weaker potency in that assay.
